Assay [1] concerns A549. In words: Induction of cell cycle arrest in human A549 cells assessed as accumulation of cells at G2/M phase at 1 uM for 24 hrs by Click-iT EdU Alexa Fluor 647 flow cytometric assay kit analysis (reference value: 3%). The assay is classed as functional. (In general: Flow cytometry measures light scatter and fluorescence of single cells or particles in a stream.)
The test system of assay [2] is A549. In words: Induction of cell cycle arrest in human A549 cells assessed as accumulation of cells at S phase at 0.25 uM for 24 hrs by Click-iT EdU Alexa Fluor 647 flow cytometric assay kit analysis (reference value: 35%). The assay is classed as functional.
For assay [3], the system named is A549. In words: Induction of cell cycle arrest in human A549 cells assessed as accumulation of cells at S phase at 0.1 uM for 24 hrs by Click-iT EdU Alexa Fluor 647 flow cytometric assay kit analysis (reference value: 35%). The assay is classed as functional.
The test system of assay [4] is NCI-H1373. In words: Induction of cell cycle arrest in human NCI-H1373 cells assessed as accumulation of cells at S phase at 0.5 uM for 24 hrs by Click-iT EdU Alexa Fluor 647 flow cytometric assay kit analysis (reference value: 45%). The assay is classed as functional.
For assay [5], the system named is NCI-H1373. In words: Induction of cell cycle arrest in human NCI-H1373 cells assessed as accumulation of cells at S phase at 0.25 uM for 24 hrs by Click-iT EdU Alexa Fluor 647 flow cytometric assay kit analysis (reference value: 45%). The assay is classed as functional.
The subject of assay [6] is A549. In words: Induction of cell cycle arrest in human A549 cells assessed as accumulation of cells at S phase at 1 uM for 24 hrs by DAPI staining analysis (reference value: 36%). The assay is classed as functional.
For assay [7], the system named is DV-90. In words: Induction of apoptosis in human DV-90 cells assessed as viable cells at 2.5 uM for 24 hrs by annexin V-PI staining based flow cytometric analysis (reference value: 81.5%). The assay is classed as functional. As to conditions: read-out: Activity.
Assay [8] relates to A549. In words: Induction of apoptosis in human A549 cells assessed as late apoptotic cells at 0.5 uM for 24 hrs by annexin V-PI staining based flow cytometric analysis (reference value: 2.3%). The assay is classed as functional.
Assay [9] deals with NCI-H460. In words: Induction of apoptosis in human NCI-H460 cells assessed as early apoptotic cells at 0.5 uM for 24 hrs by annexin V-PI staining based flow cytometric analysis (reference value: 0.2%). The assay is classed as functional.
The subject of assay [10] is NCI-H460. In words: Induction of apoptosis in human NCI-H460 cells assessed as viable cells at 2.5 uM for 24 hrs by annexin V-PI staining based flow cytometric analysis (reference value: 94%). The assay is classed as functional. The settings on record: read-out: Activity.
A further assay deals with NCI-H23. In words: Downregulation of c-MYC mRNA expression level in human NCI-H23 cells at 0.1 to 1 uM for 24 hrs by qRT-PCR analysis. The assay is classed as functional, cell-based. As to conditions: dose 0.1-1 µM. Background: Real-time PCR tracks product formation cycle by cycle.
Assay [11] deals with NCI-H1373. In words: Induction of TRAIL dependent apoptosis in human NCI-H1373 cells assessed as necrotic cells at 1 uM by annexin V-PI staining based flow cytometric analysis (reference value: 3.6%). The assay is classed as functional.
In the next assay the test system is NCI-H358. In words: Antiproliferative activity against human NCI-H358 cells at 500 to 2500 nM in presence of TNF by cell titre glo assay. The settings on record: dose 500-2500 nM. The assay is classed as functional, cell-based.
Assay [12] has as its system DV-90. In words: Induction of cell cycle arrest in human DV-90 cells assessed as accumulation of cells at G2/M phase at 0.25 uM for 24 hrs by Click-iT EdU Alexa Fluor 647 flow cytometric assay kit analysis (reference value: 21%). The assay is classed as functional.
Assay [13] relates to NCI-H1373. In words: Induction of apoptosis in human NCI-H1373 cells assessed as necrotic cells at 0.5 uM for 24 hrs by annexin V-PI staining based flow cytometric analysis (reference value: 4.4%). The assay is classed as functional.
The test system of assay [14] is NCI-H1373. In words: Induction of apoptosis in human NCI-H1373 cells assessed as viable cells at 2.5 uM for 24 hrs by annexin V-PI staining based flow cytometric analysis (reference value: 71.6%). As to conditions: read-out: Activity. The assay is classed as functional.
The subject of assay [15] is DV-90. In words: Induction of cell cycle arrest in human DV-90 cells assessed as accumulation of cells at G0/G1 phase at 0.25 uM for 24 hrs by Click-iT EdU Alexa Fluor 647 flow cytometric assay kit analysis (reference value: 45%). The assay is classed as functional.
The subject of assay [16] is DV-90. In words: Induction of cell cycle arrest in human DV-90 cells assessed as accumulation of cells at G0/G1 phase at 0.5 uM for 24 hrs by Click-iT EdU Alexa Fluor 647 flow cytometric assay kit analysis (reference value: 45%). The assay is classed as functional.
Assay [17] relates to NCI-H460. In words: Induction of cell cycle arrest in human NCI-H460 cells assessed as accumulation of cells at S phase at 0.5 uM for 24 hrs by Click-iT EdU Alexa Fluor 647 flow cytometric assay kit analysis (reference value: 54%). The assay is classed as functional.
In assay [18] the test system is NCI-H460. In words: Induction of cell cycle arrest in human NCI-H460 cells assessed as accumulation of cells at G0/G1 phase at 1 uM for 24 hrs by Click-iT EdU Alexa Fluor 647 flow cytometric assay kit analysis (reference value: 45%). The assay is classed as functional.

SMILES strings stand for the structures. Calls of active or inactive are those of the source. The rule behind the calls is not given here.

For `Cc1sc2c(c1C)C(c1ccc(Cl)cc1)=N[C@@H](CC(=O)OC(C)(C)C)c1nnc(C)n1-2`, the Activity in the assay on A549 [1] stood at 4%; with A549 [2], 33%; in the assay with A549 [3], 36%; with NCI-H1373 [4], 12%; in the assay on NCI-H1373 [5], 21%; with A549 [6] it was 32%. Further, the Activity in the assay with A549 [8] is on record as 1.5%; in the assay with NCI-H460 [9], 0.2%; with NCI-H1373 [11], 19.1%. Besides, the viability at 2.5 µM is 50.7% in the assay on DV-90 [7] and 90.4% in the assay with NCI-H460 [10]. Also, the result in the assay on NCI-H23 and in the assay with NCI-H358 was Active.

Regarding `Cc1sc2c(c1C)C(c1ccc(Cl)cc1)=N[C@@H](CC(=O)Nc1ccc(O)cc1)c1nnc(C)n1-2` [BIRABRESIB], the figures for the Activity in the assay on DV-90 [12] and in the assay on NCI-H1373 [13] were 26% and 9.6%, respectively. In addition, in the assay with NCI-H1373 [14], the viability at 2.5 µM worked out at 56.2%.

For the molecule `CCNC(=O)C[C@@H]1N=C(c2ccc(Cl)cc2)c2cc(OC)ccc2-n2c(C)nnc21` [MOLIBRESIB], the Activity in the assay with DV-90 [15] was found to be 49%; in the assay on DV-90 [16], 47%; with NCI-H460 [17], 46%; in the assay with NCI-H460 [18], 52%.

The values above are taken from ChEMBL document CHEMBL5712891, “Inhibition of BET bromodomain-dependent XIAP and FLIP expression sensitizes KRAS-mutated NSCLC to pro-apoptotic agents” (Cell Death Dis, 2016).
